# Experiments:
# TbMCP-1 = TbMCP-1 (Trypanosoma brucei, UniProt Q386R0); experiment: Continuous fluorogenic (FRET) TbMCP-1 assay with Abz-RFFK(Dnp)-OH, primary and secondary screening; assay type: biochemical; conditions: for TbMCP-1 2º/1º ratio: secondary (31,5 µM) / primary (25 µM) inhibition; for TbMCP-1 Primary screening Inhibition (%): single inhibitor concentration 25 µM; for TbMCP-1 Secondary screening Inhibition (%): single inhibitor concentration 31,5 µM; for TbMCP-1 Hill Slope: four-parameter Hill fit of dose-response curve
# Sequence of TbMCP-1 (Q386R0 entry or part of it): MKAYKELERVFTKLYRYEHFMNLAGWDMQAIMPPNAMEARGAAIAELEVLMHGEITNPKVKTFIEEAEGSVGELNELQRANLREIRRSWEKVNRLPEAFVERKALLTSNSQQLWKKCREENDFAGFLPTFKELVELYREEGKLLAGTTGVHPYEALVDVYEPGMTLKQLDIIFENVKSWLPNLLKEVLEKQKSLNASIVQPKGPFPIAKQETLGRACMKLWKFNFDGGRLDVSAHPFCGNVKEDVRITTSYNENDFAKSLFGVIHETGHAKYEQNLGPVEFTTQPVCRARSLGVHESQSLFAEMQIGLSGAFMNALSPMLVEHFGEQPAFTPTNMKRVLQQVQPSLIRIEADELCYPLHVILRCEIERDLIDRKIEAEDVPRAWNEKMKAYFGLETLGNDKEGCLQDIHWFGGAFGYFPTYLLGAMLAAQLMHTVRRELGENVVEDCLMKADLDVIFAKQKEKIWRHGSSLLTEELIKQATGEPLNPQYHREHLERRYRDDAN
# Protocol: (§1) TcMCP-1 (MEROPS ID: M32.003) and TbMCP-1 were expressed as GST fusion proteins in E. coli BL21 (DE3) Codon Plus and purified as previously described.
# (§2) TbMCP-1 and TcMCP-1 activities were assayed fluorometrically with Abz-RFFK(Dnp)-OH and Abz-LKFK(Dnp)-OH substrates, respectively, in 100 mM MOPS pH 7,2 containing 0,01% Triton X-100. Assays were performed in solid black 384-well plates (final reaction volume ~80 μL) and the hydrolysis of the K(Dnp)-OH group was monitored continuously at 30 °C with a Beckman Coulter DTX 880 Multimode Reader (Radnor, Pennsylvania, USA) using standard 320 nm excitation and 420 nm emission filter set.
# (§3) In all cases, EDTA (final concentration 31,25 mM) was used as positive inhibition control.
# (§4) Then, 40 μL of 100 mM MOPS, 0,01% Triton X-100 pH 7,2 containing TbMCP-1 (2,50 nM) or TcMCP-1 (0,34 nM) were added to each well, plates were homogenized (30 seg, orbital, medium intensity) and each well subjected to a single autofluorescence read (ex/em = 320/420 nm). Plates were incubated in darkness for 15 min at 30 °C and then 40 μL of Abz-RFFK(Dnp)-OH (4 μM) or Abz-LKFK(Dnp)-OH (0,8 μM) in assay buffer were added to each well to start the reaction. After homogenization (30 seg, orbital, medium intensity), the fluorescence of the Abz group (ortho-aminobenzoic acid) (ex/em = 320/420 nm) was acquired kinetically for each well (8 read cycles, one cycle every 300 seconds). Considering our previous experiences, the auto-fluorescent cut-off was arbitrarily set at 2x10^5 RFU to discard highly interfering compounds. All compounds were assayed in singlet (without replicates) due to the limited availability of stocks.
# (§5) Raw screening measurements were used to determine the slope (dF/dt) of progression curves by linear regression for control and non-interfering compound wells. In the case of control-dependent hit selection criteria, percent inhibition percentage (%Inh) was calculated for each compound according to the following equation: Inh=100∙[1−(dF/dt^WELL−μ^C−)/(μ^C+−μ^C−)] (1) where dF/dt^WELL represents the slope of each compound well and μ^C+ and μ^C− the average of MCP (no-inhibition) and substrate (no-enzyme) controls, respectively.
# (§6) To avoid any positional and/or association bias, we randomly defined the row position for each compound. One μL of compounds stock (10 mM in DMSO) and EDTA (31,25 mM) were added to the first well of column 1, followed by addition of 40 μL of 100 mM MOPS, 0,01% Triton X-100 pH 7,2 buffer. After addition of 20 μL of the same buffer to subsequent wells of the plate, 22 serial 2-fold dilutions were made horizontally. The last two positions of every row were used, alternatively, for C^+ and C^− controls to reduce any positional and/or association bias. Then, 20 μL of activity buffer containing TbMCP-1 or TcMCP-1 were added to each well, except for those corresponding to C^−; completed with 20 μL of activity buffer. After homogenization, 15 minutes of incubation at 30°C and autofluorescence measurement, the substrate (in activity buffer) was added to the previous mix. Data collection and processing were performed exactly as described above. Percentage of M32 MCPs residual activity was calculated for each condition according to the following equation: %Res.Act^MCP=100∙[(dF/dt^WELL−μ^C−)/(μ^C+−μ^C−)] (2) where dF/dt^WELL represents the slope of each compound well and μ^C+ and μ^C− the average of MCP (no-inhibition) and substrate (no-enzyme) controls, respectively.
# TcMCP-1 = TcMCP-1 (Trypanosoma cruzi, UniProt Q6ZXC0); experiment: Continuous fluorogenic (FRET) TcMCP-1 assay with Abz-LKFK(Dnp)-OH, primary and secondary screening; assay type: biochemical; conditions: for TcMCP-1 2º/1º ratio: secondary (31,5 µM) / primary (25 µM) inhibition; for TcMCP-1 Primary screening Inhibition (%): single inhibitor concentration 25 µM; for TcMCP-1 Secondary screening Inhibition (%): single inhibitor concentration 31,5 µM; for TcMCP-1 Hill Slope: four-parameter Hill fit of dose-response curve
# Sequence of TcMCP-1 (Q6ZXC0 entry or part of it): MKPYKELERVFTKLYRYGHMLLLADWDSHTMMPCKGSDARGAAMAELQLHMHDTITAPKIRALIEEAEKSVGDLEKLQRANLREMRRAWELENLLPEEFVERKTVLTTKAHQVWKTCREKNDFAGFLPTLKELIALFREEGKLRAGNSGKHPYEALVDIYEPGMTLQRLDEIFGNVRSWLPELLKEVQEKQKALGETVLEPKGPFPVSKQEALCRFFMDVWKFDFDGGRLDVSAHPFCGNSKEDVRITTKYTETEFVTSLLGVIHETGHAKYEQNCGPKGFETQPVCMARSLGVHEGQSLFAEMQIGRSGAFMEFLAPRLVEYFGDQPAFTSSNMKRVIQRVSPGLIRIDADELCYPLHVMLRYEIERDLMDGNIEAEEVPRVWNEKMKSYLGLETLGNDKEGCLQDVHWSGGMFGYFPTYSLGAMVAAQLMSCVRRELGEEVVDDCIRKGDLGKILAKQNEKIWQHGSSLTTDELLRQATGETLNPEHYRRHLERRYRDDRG
# Protocol: as §1, §2, §3, §4, §5
# as §6, with “Compounds selected from primary screening were re-tested in a dose-response manner (final concentration ranging from […] to 62,5 μM) using identical assay conditions. To” for “To”
SMILES,IC50 (TbMCP-1) [µM],TbMCP-1 2º/1º ratio (TbMCP-1),TbMCP-1 Primary screening Inhibition (%) (TbMCP-1),TbMCP-1 Secondary screening Inhibition (%) (TbMCP-1),TbMCP-1 Hill Slope (TbMCP-1),IC50 (TcMCP-1) [µM],TcMCP-1 2º/1º ratio (TcMCP-1),TcMCP-1 Primary screening Inhibition (%) (TcMCP-1),TcMCP-1 Secondary screening Inhibition (%) (TcMCP-1),TcMCP-1 Hill Slope (TcMCP-1)
Cc1c(Nc2cc(C3CC3)n[nH]2)ccc(C#N)c1Cl.O=C(O)C(F)(F)F [TCMDC-143454],> 60,"0,63","52,66%","33,23%",,,,,,
Cl.Cl.O=c1cc(NCCCNCc2cc(C(F)(F)F)cs2)[nH]c2ccccc12 [TCMDC-143645],20.8,"1,27","42,78%","54,13%","-1,127",,,,,
O=C(O)C(F)(F)F.O=C(O)C(F)(F)F.O=C1COC(c2ccccc2)(c2ccccc2)CN1C1CCN(Cc2ccc(-n3ccnc3)cc2)CC1 [TCMDC-143543],,,,,,> 60,"0,72","43,40%","31,11%",
CN(C)S(=O)(=O)c1ccc(Cl)c(C(=O)Nc2nc(-c3ccccn3)cs2)c1 [TCMDC-143265],44.2,"0,40","59,46%","23,62%","-2,036",,,,,
Cc1cc(C#N)c([N+](=O)[O-])cc1Br [TCMDC-143541],,"0,20","44,26%","8,89%",,,,,,
O=C(NNC(=O)c1ccccn1)c1ccc(-c2ccccc2)cc1 [TCMDC-143263],,,,,,40.7,"0,31","48,44%","14,84%","-0,9946"
Cn1ccnc1CN1CCc2[nH]cnc2C1c1ccccc1OCc1ccccc1 (centres unmarked) [TCMDC-143242],,,,,,26.5,"1,02","51,89%","52,68%","-1,237"
CC1=C(C(=O)Nc2ccc(Cl)cc2)C(c2ccncc2)n2ncc(C(=O)Nc3ccccc3)c2N1 (centres unmarked) [TCMDC-143187],> 60,"0,50","48,70%","24,44%",,,,,,
CC(Cn1ccnc1)NC(=O)COc1ccc(Cl)c(Cl)c1 (centres unmarked) [TCMDC-143479],,,,,,,"0,31","42,39%","13,15%",
CC(C)Oc1cccc(N2CCC(C(=O)N3CCCN(C(C)C)CC3)CC2)c1.Cl [TCMDC-143432],,,,,,26.3,"1,27","42,37%","53,96%","-0,6129"
Cl.Cl.O=c1ccc2ccc(F)c3c2n1C[C@H]3CN1CCN(CC(O)c2cc3c(cn2)OCS3)CC1 (some centres unmarked) [TCMDC-143158],27.6,"1,19","44,84%","53,51%","-1,014",,,,,
CC(C)N(C(=O)CN1C(=O)C(N)C(=O)N(c2ccccc2)c2ccccc21)c1ccccc1 (centres unmarked) [TCMDC-143071],,,,,,38.9,"0,63","45,44%","28,65%","-1,235"
O=C(c1cc2cc(Cl)ccc2[nH]1)N1CCCCC1c1cccnc1 (centres unmarked) [TCMDC-143159],,"0,25","52,96%","13,07%",,,,,,

# Reference: PMC6675120, “Potent and selective inhibitors for M32 metallocarboxypeptidases identified from high-throughput screening of anti-kinetoplastid chemical boxes” (PLoS Neglected Tropical Diseases, 2019)
